Source: patent US9732092B2, “Substituted 2,3,4,5,7,9,13,13a-octahydropyrido[1′,2′:4,5]pyrazino[2,1-b][1,3]OXAZEPINES and methods for treating viral infections” (Gilead Sciences, Inc., priority 2012, dated 2017)
Each block holds one compound with its values, some of them ahead of it.

What was measured:
in vitro = conditions: human
Method: (§1) For the antiviral assay utilizing MT4 cells, 0.4 μL of […] test concentration of 3-fold serially diluted compound in DMSO was added to 40 μL of cell growth medium (RPMI 1640, 10% FBS, 1% penicilline/Streptomycine, 1% L-Glutamine, 1% HEPES) in each well of 384-well assay plates (10 concentrations) in quidruplicate.
(§2) 1 mL aliquots of 2×10^6 MT4 cells are pre-infected for 1 and 3 hours respectively at 37° C. with 25 μL (MT4) or of either cell growth medium (mock-infected) or a fresh 1:250 dilution of an HIV-IIIb concentrated ABI stock (0.004 m.o.i. for MT4 cells). Infected and uninfected cells are diluted in cell growth medium and 35 μL of 2000 (for MT4) cells is added to each well of the assay plates.
(§3) Assay plates were then incubated in a 37° C. incubator. After 5 days of incubation, 25 μL of 2× concentrated CellTiter-GloT Reagent (catalog # G7573, Promega Biosciences, Inc., Madison, Wis.) was added to each well of the assay plate. Cell lysis was carried out by incubating at room temperature for 2-3 minutes, and then chemiluminescence was read using the Envision reader (PerkinElmer).

MT4 cells = assay: Cytotoxicity (CC50) in MT4 cells, mock-infected; conditions: read-out: CC50 nM in MT-4; MT4 cells, 5 days, CellTiter-Glo
Method: as §1, §2, §3

[1] = Pharmacokinetic analysis following oral administration to beagle dogs; format: in vivo; conditions: beagle dog, 1 mg/kg
Method: Pharmacokinetic analysis was performed on various test compounds following intravenous or oral administration to beagle dogs.
For pharmacokinetic analysis of intravenously administered compounds, the test compounds were formulated in 5% Ethanol, 55% PEG 300, and 40% water at 0.1 mg/mL for IV infusion. For pharmacokinetic analysis of orally administered compounds, the test compounds were formulated as an aqueous suspension in 0.1% Tween 20, 0.5% HPMC LV100 in Di Water at 1 mg/kg.
Each dosing group consisted of 3 male, non-naïve purebred beagle dogs. At dosing, the animals weighed between 10 to 13 kg. The animals were fasted overnight prior to dose administration and up to 4 hr after dosing. For studies of intravenous administration, the test article was administered to the animals by intravenous infusion over 30 min. The rate of infusion was adjusted according to the body weight of each animal to deliver a dose of 0.5 mg/kg. […]
For pharmacokinetic analysis of orally administered compounds, serial venous blood samples (approximately 0.3 mL each) were taken from each animal at time points of 0, 0.25, 0.50, 1.0, 2.0, 4.0, 6.0, 8.0, 12.0 and 24.0 hours after dosing. Blood samples were collected, prepared and analyzed in a similar way to the intranveous studies described above. […]

human PXR (NR1I2) = human PXR (NR1I2) (Homo sapiens (Human), UniProt O75469); assay: Human PXR activation assay (luciferase reporter gene, DPX2 cells); format: cell-based; conditions: relative to maximum fold induction by 10 or 20 μM rifampicin
Sequence of human PXR (NR1I2) (O75469 whole entry): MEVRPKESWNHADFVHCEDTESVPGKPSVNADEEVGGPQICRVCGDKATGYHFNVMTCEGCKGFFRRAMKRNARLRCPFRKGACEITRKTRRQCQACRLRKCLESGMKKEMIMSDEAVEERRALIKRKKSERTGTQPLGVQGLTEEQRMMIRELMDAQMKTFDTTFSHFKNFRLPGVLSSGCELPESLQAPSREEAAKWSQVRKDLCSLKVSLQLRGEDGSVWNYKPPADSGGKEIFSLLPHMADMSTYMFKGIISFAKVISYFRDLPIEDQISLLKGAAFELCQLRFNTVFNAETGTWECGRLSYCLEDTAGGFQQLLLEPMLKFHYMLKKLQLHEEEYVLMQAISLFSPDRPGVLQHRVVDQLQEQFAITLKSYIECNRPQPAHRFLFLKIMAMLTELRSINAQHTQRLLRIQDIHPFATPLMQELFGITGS
Method: A stably transformed tumor cell line (DPX2) was plated on 96-well microtiter plates. DPX2 cells harbor the human PXR gene (NR1I2) and a luciferase reporter gene linked to two promoters identified in the human CYP3A4 gene, namely XREM and PXRE. […] The number of viable cells was determined and the reporter gene activity was assessed. Positive control: […]

[2] = MT4 cells, mock-infected (uninfected)

SMILES: O=C(NCc1ccc(F)cc1F)c1cn2c(c(O)c1=O)C(=O)N1[C@@H]3COC[C@@H](C3)O[C@H]1C2 (racemic) [50/51, N-(2,4-difluorobenzyl)-9-hydroxy-8,10-dioxo-2,3,5,6,8, 10,14,14a-octahydro-2,6-methanopyrido[1′,2′:4,5]pyrazino[2,1-b][1,6,3]dioxazocine-11-carboxamide]
CC50 at 5 days (in vitro): 37.2 µM

SMILES: O=C(NC1(c2ccc(F)cc2F)CCCCC1)c1cn2c(c(O)c1=O)C(=O)N1C(C2)O[C@H]2CC[C@@H]1C2 (stereo partly drawn) [Compound 34, (2S,5R)—N-(1-(2,4-difluorophenyl)cyclohexyl)-8-hydroxy-7,9-dioxo-2,3,4,5,7,9,13,13a-octahydro-2,5-methanopyrido[1′,2′:4, 5]pyrazino[2,1-b][1,3]oxazepine-10-carboxamide]
CC50 (MT4 cells): 3580 nM

F (%) aqueous suspension [1]: 28.0%
SMILES: O=C(NCc1c(F)cc(F)cc1F)c1cn2c(c(O)c1=O)C(=O)N1[C@H]3CC[C@H](C3)O[C@@H]1C2 [Compound 42, (2R,5S,13aR)-8-hydroxy-7,9-dioxo-N-(2,4,6-trifluorobenzyl)-2,3,4,5,7,9,13,13a-octahydro-2,5-methanopyrido[1′,2′:4,5]pyrazino[2,1-b][1,3]oxazepine-10-carboxamide]

SMILES: O=C(NCc1c(F)cc(F)cc1F)c1cn2c(c(O)c1=O)C(=O)N1[C@H]3CC[C@H](CC3)[C@H]1C2 [Compound 101, (1R,4R,12aS)-7-hydroxy-6,8-dioxo-N-(2,4,6-trifluorobenzyl)-1,2,3,4,6,8,12,12a-octahydro-1,4-ethanodipyrido[1,2-a:1′,2′-d]pyrazine-9-carboxamide]
CC50 at 5 days (in vitro; [2]): 11.6 µM

Emax at 24 h, 15 µM (human PXR (NR1I2)): 123%
SMILES: O=C(NCc1c(F)cc(F)cc1F)c1cn2c(c(O)c1=O)C(=O)N1[C@H]3CC[C@H](CC3)[C@@H]1C2 [Compound 102, (1S,4S,12aR)-7-hydroxy-6,8-dioxo-N-(2,4,6-trifluorobenzyl)-1,2,3,4,6,8,12, 12a-octahydro-1,4-ethanodipyrido[1,2-a:1′,2′-d]pyrazine-9-carboxamide]
CC50 at 5 days (in vitro; [2]): 12 µM
